Patent US12171230B2, “Herbicidal compositions” (Bayer Aktiengesellschaft, priority 2018, dated 2024)

Columns and labels:
Format in all cases: in vivo
Lamium purpureum = experiment: Post-emergence herbicidal action against Lamium purpureum; settings: for Herbicidal action: 1 g a.i./ha
Method: When the observed efficacies exceed the formal sum total of the values of the tests with individual applications, they also exceed the expected value according to Colby, which is calculated using the formula below and is likewise regarded as an indication of synergism (cf. S. R. Colby; in Weeds 15 (1967) p. 20 to 22): E^C=A+B−([…])
Here: • A=efficacy of the active compound (A) in % at an application rate of a g a.i./ha; • B=efficacy of the active compound (B) in % at an application rate of b g a.i./ha; • E^C=expected value of the effect of the combination (A)+(B) in % at the combined application rate a+b g a.i./ha.
Seeds or rhizome pieces of mono- and dicotyledonous weeds are placed in sandy loam in pots, covered with soil and grown in a greenhouse under good growth conditions (temperature, air humidity, water supply). Three weeks after sowing, the test plants were treated at the three-leaf stage with the compositions according to the invention. The compositions according to the invention formulated as spray powders or as emulsion concentrates were sprayed onto the green plant parts in various dosages with an application rate of 300 to 800 l/ha of water (equivalent). After the test plants have been left to stand in the greenhouse under optimal growth conditions for about 3 to 4 weeks, the action of the preparations is scored visually in comparison to untreated controls. The compositions according to the invention also have good post-emergence herbicidal activity against a broad spectrum of economically important gramineous and broadleaf weeds.

Poa annua = experiment: Post-emergence herbicidal action against Poa annua
Method in brief: (§1)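 Weeds sown in sandy loam pots in greenhouse; treated post-emergence at three-leaf stage (three weeks after sowing) by spraying formulated compositions at various dosages in 300 to 800 l/ha water. Visual scoring versus untreated controls after about 3 to 4 weeks; synergism judged against Colby expected values.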

Centaurea cyano = experiment: Post-emergence herbicidal action against Centaurea cyano
Method in brief: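 Greenhouse pot-grown plants sprayed post-emergence at the three-leaf stage, three weeks after sowing, with spray-powder or emulsion-concentrate formulations at various dosages in 300 to 800 l/ha water on green parts.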

Galium aparine = experiment: Post-emergence herbicidal action against Galium aparine; settings: for Herbicidal action: 28 DAT
Method in brief: as §1

Matricaria inodora = experiment: Post-emergence herbicidal action against Matricaria inodora; settings: for Herbicidal action: 1 g a.i./ha
Lolium rigidum [1] = experiment: Post-emergence herbicidal action against Lolium rigidum
Method in brief: (§2)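 Colby-derived expected values (E^C) and the summed effects of the separate applications (E^A) accompany each rating. Active substance was dosed in grams per hectare on a 100% active-compound basis, with the rating period given as DAT.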

[2] = test system: Lolium rigidum (resistant biotype); experiment: Post-emergence herbicidal action against Lolium rigidum (resistant biotype)
Phalaris minor [3] = experiment: Post-emergence herbicidal action against Phalaris minor
Veronica hederifolia = experiment: Post-emergence herbicidal action against Veronica hederifolia; settings: 0.17 g of a.i./ha
Alopecurus myosuroides = experiment: Post-emergence herbicidal action against Alopecurus myosuroides
Method in brief: as §2

Bromus sterilis [4] = experiment: Post-emergence herbicidal action against Bromus sterilis
Method in brief: as §2

[5] = test system: Lolium rigidum (resistant biotype); experiment: Post-emergence herbicidal action against Lolium rigidum (resistant biotype); settings: (Z119) post-emergence; g of a.i./ha: 1, 270, 1 + 270
Method in brief: as §2

Phalaris minor [6] = experiment: Post-emergence herbicidal action against Phalaris minor; settings: (Z119) post-emergence; for Herbicidal action 28 DAT against Phalaris minor: g of a.i./ha: 16, 4, 270, 90, 30, 16 + 270, 16 + 90, 16 + 30, 4 + 270, 4 + 30
Method in brief: as §2

Bromus sterilis [7] = experiment: Post-emergence herbicidal action against Bromus sterilis; remark: listed apart in the source
Lolium rigidum [8] = experiment: Post-emergence herbicidal action against Lolium rigidum; remark: listed apart in the source
Phalaris minor [9] = experiment: Post-emergence herbicidal action against Phalaris minor; remark: listed apart in the source
Viola tricolor [10] = experiment: Post-emergence herbicidal action against Viola tricolor; settings: (Z119) post-emergence; g of a.i./ha: 16, 270, 16 + 270
Source text: The following abbreviations are used in the description and the tables that follow: • g of a.i./ha=grams of active substance (active ingredient) (=100% active compound) per hectare; • The sum total of the effects of the individual applications is reported under E^A; • expected values according to Colby are each reported under E^C.
The rating period is reported in days after application (DAT).

Viola tricolor [11] = experiment: as above

COc1nn(C(=O)NS(=O)(=O)c2c(C(=O)O)csc2C)c(=O)n1C [(B2.68) Thiencarbazone]
Herbicidal action 28 DAT against Lamium purpureum L. (Lamium purpureum; 0.17 g of a.i./ha): 35%
Herbicidal action against Poa annua L. (Poa annua; 14 DAT, 0.5 g of a.i./ha): 10%
Herbicidal action against Poa annua L. (Poa annua; 14 DAT, 1.5 g of a.i./ha): 15%
Herbicidal action against Poa annua L. (Poa annua; 28 DAT, 0.5 g of a.i./ha): 0%
Herbicidal action against Poa annua L. (Poa annua; 28 DAT, 1.5 g of a.i./ha): 25%
Herbicidal action 14 DAT against Centaurea cyanus (Centaurea cyano; 0.17 g of a.i./ha): 0%
Herbicidal action 28 DAT against Centaurea cyanus (Centaurea cyano; 0.17 g of a.i./ha): 0%
Herbicidal action 28 DAT against Centaurea cyanus (Centaurea cyano; 1.5 g of a.i./ha): 35%
Herbicidal action 14 DAT against Galium aparine (Galium aparine; 0.17 g of a.i./ha): 60%
Herbicidal action 28 DAT against Galium aparine (Galium aparine; 0.17 g of a.i./ha): 50%
Herbicidal action against Matricaria inodora (Matricaria inodora; 14 DAT, 0.17 g of a.i./ha): 15%
Herbicidal action against Matricaria inodora (Matricaria inodora; 14 DAT, 0.5 g of a.i./ha): 50%
Herbicidal action against Matricaria inodora (Matricaria inodora; 28 DAT, 0.17 g of a.i./ha): 0%
Herbicidal action 14 DAT against Lolium rigidum (Lolium rigidum [1]; 0.5 g of a.i./ha): 60%
Herbicidal action 28 DAT against Lolium rigidum (Lolium rigidum [1]; 0.5 g of a.i./ha): 10%
Herbicidal action 14 DAT against Lolium rigidum (Lolium rigidum [1]; 1.5 g of a.i./ha): 85%
Herbicidal action 28 DAT against Lolium rigidum (Lolium rigidum [1]; 1.5 g of a.i./ha): 50%
Herbicidal action against Lolium rigidum (resistant biotype) ([2]; 14 DAT, 0.17 g of a.i./ha): 0%
Herbicidal action against Lolium rigidum (resistant biotype) ([2]; 14 DAT, 0.5 g of a.i./ha): 0%
Herbicidal action against Lolium rigidum (resistant biotype) ([2]; 14 DAT, 1.5 g of a.i./ha): 0%
Herbicidal action against Lolium rigidum (resistant biotype) ([2]; 28 DAT, 0.5 g of a.i./ha): 10%
Herbicidal action against Lolium rigidum (resistant biotype) ([2]; 28 DAT, 1.5 g of a.i./ha): 20%
Herbicidal action against Phalaris minor (Phalaris minor [3]; 14 DAT, 0.17 g of a.i./ha): 0%
Herbicidal action against Phalaris minor (Phalaris minor [3]; 14 DAT, 0.5 g of a.i./ha): 15%
Herbicidal action against Phalaris minor (Phalaris minor [3]; 14 DAT, 1.5 g of a.i./ha): 10%
Herbicidal action against Phalaris minor (Phalaris minor [3]; 28 DAT, 0.5 g of a.i./ha): 0%
Herbicidal action against Phalaris minor (Phalaris minor [3]; 28 DAT, 1.5 g of a.i./ha): 20%
Herbicidal action against Veronica hederifolia (Veronica hederifolia; 14 DAT): 70%
Herbicidal action against Veronica hederifolia (Veronica hederifolia; 28 DAT): 70%
Herbicidal action 14 DAT against Alopecurus myosuroides (Alopecurus myosuroides; 0.5 g of a.i./ha): 40%
Herbicidal action 14 DAT against Alopecurus myosuroides (Alopecurus myosuroides; 1.5 g of a.i./ha): 35%
Herbicidal action 28 DAT against Alopecurus myosuroides (Alopecurus myosuroides; 1.5 g of a.i./ha): 30%
Herbicidal action 14 DAT against Bromus sterilis (Bromus sterilis [4]; 0.5 g of a.i./ha): 15%
Herbicidal action 28 DAT against Bromus sterilis (Bromus sterilis [4]; 0.5 g of a.i./ha): 15%
Herbicidal action 14 DAT against Bromus sterilis (Bromus sterilis [4]; 1.5 g of a.i./ha): 20%
Herbicidal action 28 DAT against Bromus sterilis (Bromus sterilis [4]; 1.5 g of a.i./ha): 20%

C=C[C@]1(C(=O)N[C@@H]2C=C(C(=O)OC)OC2)CC(c2cc(F)cc(F)c2)=NO1 [Compound A5, methyl (3R)-3-[[(5S)-3-(3,5-difluorophenyl)-5-vinyl-4H-isoxazole-5-carbonyl]amino]-2,3-dihydrofuran-5-carboxylate]
Herbicidal action (Lamium purpureum; 14 DAT): 60%
Herbicidal action (Lamium purpureum; 28 DAT): 40%
Herbicidal action 14 DAT against Lamium purpureum L. (Lamium purpureum; (Z119) post-emergence, g of a.i./ha by row: 16, 30, 16 + 30): 80%
Herbicidal action (Poa annua; 14 DAT, 1 g a.i./ha): 30%
Herbicidal action (Poa annua; 14 DAT, 16 g a.i./ha): 70%
Herbicidal action (Poa annua; 28 DAT, 1 g a.i./ha): 20%
Herbicidal action (Centaurea cyano; 14 DAT, 1 g a.i./ha): 20%
Herbicidal action (Centaurea cyano; 28 DAT, 16 g a.i./ha): 75%
Herbicidal action 28 DAT against Centaurea cyanus (Centaurea cyano; (Z119) post-emergence, g of a.i./ha: 16, 270, 90, 30, 16 + 270, 16 + 90, 16 + 30): 75%
Herbicidal action (Galium aparine; 1 g a.i./ha): 50%
Herbicidal action (Galium aparine; 16 g a.i./ha): 70%
Herbicidal action 14 DAT against Galium aparine (Galium aparine; (Z119) post-emergence, g of a.i./ha by row: 1, 30, 1 + 30): 60%
Herbicidal action (Matricaria inodora; 14 DAT): 30%
Herbicidal action (Matricaria inodora; 28 DAT): 10%
Herbicidal action 28 DAT against Lolium rigidum (Lolium rigidum [1]; (Z119) post-emergence, g of a.i./ha: 16, 4, 1, 270, 90, 30, 16 + 270, 16 + 90, 16 + 30, 4 + 270, 4 + 90, 4 + 30, 1 + 270, 1 g of a.i./ha): 30%
Herbicidal action 28 DAT against Lolium rigidum (Lolium rigidum [1]; (Z119) post-emergence, g of a.i./ha: 16, 4, 1, 270, 90, 30, 16 + 270, 16 + 90, 16 + 30, 4 + 270, 4 + 90, 4 + 30, 1 + 270, 4 g of a.i./ha): 50%
Herbicidal action 28 DAT against Lolium rigidum (Lolium rigidum [1]; (Z119) post-emergence, g of a.i./ha: 16, 4, 1, 270, 90, 30, 16 + 270, 16 + 90, 16 + 30, 4 + 270, 4 + 90, 4 + 30, 1 + 270, 16 g of a.i./ha): 60%
Herbicidal action 28 DAT against Lolium rigidum (resistant biotype) [5]: 20%
Herbicidal action 28 DAT against Phalaris minor (Phalaris minor [6]; 4 g of a.i./ha): 60%
Herbicidal action 28 DAT against Phalaris minor (Phalaris minor [6]; 16 g of a.i./ha): 70%
Herbicidal action 14 DAT against Phalaris minor (Phalaris minor [6]; g of a.i./ha: 16, 4, 270, 90, 270, 16 + 270, 16 + 90, 4 + 270): 85%
Herbicidal action 14 DAT against Alopecurus myosuroides (Alopecurus myosuroides; (Z119) post-emergence, g of a.i./ha: 16, 1, 270, 16 + 270, 1 + 270, 1 g of a.i./ha): 50%
Herbicidal action 14 DAT against Alopecurus myosuroides (Alopecurus myosuroides; (Z119) post-emergence, g of a.i./ha: 16, 1, 270, 16 + 270, 1 + 270, 16 g of a.i./ha): 85%
Herbicidal action (Bromus sterilis [7]; 14 DAT, 4 g a.i./ha): 75%
Herbicidal action (Bromus sterilis [7]; 14 DAT, 16 g a.i./ha): 80%
Herbicidal action (Bromus sterilis [7]; 28 DAT, 1 g a.i./ha): 30%
Herbicidal action 28 DAT against Bromus sterilis (Bromus sterilis [4]; (Z119) post-emergence, g of a.i./ha: 1, 270, 1 + 270): 30%
Herbicidal action 14 DAT against Bromus sterilis (Bromus sterilis [4]; (Z119) post-emergence, g of a.i./ha: 1, 270, 90, 1 + 270, 1 + 90): 50%
Herbicidal action (Lolium rigidum [8]; 14 DAT, 1 g a.i./ha): 30%
Herbicidal action (Lolium rigidum [8]; 14 DAT, resistant biotype, 1 g a.i./ha): 30%
Herbicidal action (Lolium rigidum [8]; 14 DAT, resistant biotype, 16 g a.i./ha): 70%
Herbicidal action (Lolium rigidum [8]; 28 DAT, 1 g a.i./ha): 30%
Herbicidal action (Lolium rigidum [8]; 28 DAT, 16 g a.i./ha): 60%
Herbicidal action (Lolium rigidum [8]; 28 DAT, resistant biotype, 1 g a.i./ha): 20%
Herbicidal action (Phalaris minor [9]; 14 DAT, 1 g a.i./ha): 60%
Herbicidal action (Phalaris minor [9]; 14 DAT, 16 g a.i./ha): 85%
Herbicidal action (Phalaris minor [9]; 28 DAT, 1 g a.i./ha): 30%
Herbicidal action (Phalaris minor [9]; 28 DAT, 16 g a.i./ha): 70%
Herbicidal action 14 DAT against Viola tricolor (Viola tricolor [10]): 60%
Herbicidal action (Viola tricolor [11]; 14 DAT, 16 g a.i./ha): 60%
Herbicidal action (Viola tricolor [11]; 28 DAT, 4 g a.i./ha): 40%
Herbicidal action (Viola tricolor [11]; 28 DAT, 16 g a.i./ha): 40%
